In patent US6613961B1, “Plants capable of metabolizing drugs and use thereof” (priority 1998, dated 2003):

What was measured:
Human CYP2C9 = Human CYP2C9 (Homo sapiens, UniProt P11712); experiment: Herbicide metabolism by human P450 molecular species (microsomal fraction); type: in vitro ADME
tobacco transformants = experiment: Assay for herbicide resistance in the tobacco R0 plants (human CYP2C9); type: in vivo; set-up: Tolerance to chlorosulfuron: key: 1: almost dead; 2: severely inhibited growth; 3: slightly inferior growth; 4: the same growth as that when the herbicide was not dispersed; conditions: for Tolerance to chlorosulfuron: cultured for 40 days
Protocol: (§1) Transformed and non-transformed tobacco plants proliferated from axillary buds were transferred onto hormone-free Murashige & Skoog (MS) medium containing 0, 20, 50, 100, or 200 nM chlorosulfuron for assaying tolerance at growth.
(§2) 4, the same growth as that when the herbicide was not dispersed.

[1] = system: non-transformed tobacco plants; only vector introduced; experiment: Assay for herbicide resistance in tobacco, control plants; type: in vivo; conditions: for Tolerance to chlorosulfuron: cultured for 40 days
Protocol: as §1, §2

tobacco R0 plants = experiment: Herbicide metabolism in the tobacco R0 plants; type: in vivo; conditions: 14C-labeled 0.5 mM chlorosulfuron (20 μl) on the leaf surface; 50 hours; thin layer chromatography
Protocol: Using the tobacco R0 plants 3 weeks after transplantation, metabolism of chlorosulfuron was measured by the method of Sweetser et al. (Sweetser, P. B. et al., Pestic. Biochem. Physiol., 1982, 17, 18-23). ^14C-labeled 0.5 mM chlorosulfuron (20 μl) was spread on the leaf surface. The leaf surface was washed with acetone 50 hours after the treatment, and a metabolite was extracted by acetone extraction. The extract was concentrated and dried by a rotary evaporator, dissolved in methanol, and analyzed by thin layer chromatography using benzene:acetone:formic acid (30:10:1) as an solvent.

[2] = system: seeds of Nipponbare into which the gene was not introduced; experiment: Germination assay for herbicide resistance, non-introduced rice seeds; type: in vivo, rice (Nipponbare); conditions: after about 4 to 7 days
[3] = system: human P4502C9 gene-introduced rice; experiment: Germination assay for herbicide resistance of human P4502C9 gene-introduced rice R1 seeds; type: in vivo
Human CYP2B6 = target: T1, Human CYP2B6 (Homo sapiens, UniProt P20813); experiment: Metabolism of herbicides in microsomes of recombinant yeast expressing human P450
T1 sequence (P20813 1-491): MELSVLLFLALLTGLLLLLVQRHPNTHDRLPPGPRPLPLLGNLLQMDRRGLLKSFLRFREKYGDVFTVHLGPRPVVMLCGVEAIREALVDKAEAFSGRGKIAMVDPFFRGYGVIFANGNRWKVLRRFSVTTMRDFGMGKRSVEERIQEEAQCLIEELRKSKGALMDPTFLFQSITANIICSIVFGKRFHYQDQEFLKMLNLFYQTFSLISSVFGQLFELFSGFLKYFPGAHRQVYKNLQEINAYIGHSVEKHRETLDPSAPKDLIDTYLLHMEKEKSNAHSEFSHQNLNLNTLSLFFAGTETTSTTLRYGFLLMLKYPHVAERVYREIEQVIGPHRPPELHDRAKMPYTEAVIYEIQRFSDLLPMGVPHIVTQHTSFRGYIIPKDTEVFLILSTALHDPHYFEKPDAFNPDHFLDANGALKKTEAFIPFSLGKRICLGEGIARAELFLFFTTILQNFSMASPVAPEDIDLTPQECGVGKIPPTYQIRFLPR
Protocol: The reaction was carried out in a range of temperature suitable for an organism from which a p450 molecular species is derived (for example, 37° C. for human P450), by mixing with air while vigorously shaking, within a period during which an enzyme is not inactivated (for example, for 10 to 60 min).
From the height of the peak, a metabolized amount can be obtained.
To 0.1 M potassium phosphate buffer (pH 7.4), the microsomal fraction prepared from each of yeast strains respectively expressing one of 11 human P450 molecular species (obtained from Sumitomo Chemical) was added so that the amount of the p450 would be 25 pmol. Furthermore, 0.5 mM NADPH, 5 mM glucose 6 phosphate, 1 U/ml glucose 6 phosphate dehydrogenase, and 0.1 mM each of the following herbicides (those available in the market were used) were added at the final concentrations thereto to make the total volume of 100 μl. The reaction mixture was shaken at 37° C. for 60 min, and an organic solvent was added thereto for the extraction. The extract was applied to the high performance liquid chromatography, and the metabolite was measured.

[4] = system: human P4502C19 gene-introduced rice; experiment: Germination assay for herbicide resistance of human P4502C19 gene-introduced rice R1 seeds; type: in vivo
non-transformed MayQueen = experiment: Assay for herbicide resistance, non-transformed potato; type: in vivo; conditions: 14 days after dispersal
Description: 4, the same growth as that when herbicide was not dispersed.

S1974 (human CYP2C19) = experiment: Herbicide tolerance assay for transformants; type: in vivo, Solanum tuberosum cv. MayQueen; conditions: acetochlor 20 μmol, atrazine 1.2 μmol, metolachlor 30 μmol dispersed
Description: Then, herbicides were dispersed.

potato transformants [5] = experiment: Assay for herbicide resistance of potato transformants (human CYP2C19); conditions: for Resistance to herbicide: Transformant, 14 days after dispersal
[6] = system: human P4502C18 gene-introduced rice; experiment: Germination assay for herbicide resistance of human P4502C18 gene-introduced rice R1 seeds; type: in vivo
S1972 (human CYP2B6) = conditions: acetochlor 20 μmol, metolachlor 30 μmol dispersed
potato transformants [7] = experiment: Herbicide metabolism in the potato transformants; type: in vivo, potato (MayQueen); conditions: 14C-labeled pyributicarb 10 μM in the medium; cultured for 8 days; thin layer chromatography
Protocol: The potato transformants proliferated from axillary buds, elongated to about 10 cm, were cultured in the medium added with the ^14C-labeled pyributicarb at the concentration of 10 μM. The plants were cultured for 8 days, and metabolites were extracted from the plants (Murakami, M. et al., J. Pesticide. Sci., 1997, 22, 222-225). The metabolites and the culture solution were analyzed by thin layer chromatography (Shiota, N. et al., Pestic. Biochem. Physiol., 1996, 54, 190-198).

Human CYP2C19 = target: T2, Human CYP2C19 (Homo sapiens, UniProt P33261); experiment: Metabolism of herbicides in microsomes of recombinant yeast expressing human P450; type: in vitro ADME
T2 construct: purchased Sumitomo Chemical; host or cells: recombinant yeast, microsomal fraction
T2 sequence (P33261 whole entry): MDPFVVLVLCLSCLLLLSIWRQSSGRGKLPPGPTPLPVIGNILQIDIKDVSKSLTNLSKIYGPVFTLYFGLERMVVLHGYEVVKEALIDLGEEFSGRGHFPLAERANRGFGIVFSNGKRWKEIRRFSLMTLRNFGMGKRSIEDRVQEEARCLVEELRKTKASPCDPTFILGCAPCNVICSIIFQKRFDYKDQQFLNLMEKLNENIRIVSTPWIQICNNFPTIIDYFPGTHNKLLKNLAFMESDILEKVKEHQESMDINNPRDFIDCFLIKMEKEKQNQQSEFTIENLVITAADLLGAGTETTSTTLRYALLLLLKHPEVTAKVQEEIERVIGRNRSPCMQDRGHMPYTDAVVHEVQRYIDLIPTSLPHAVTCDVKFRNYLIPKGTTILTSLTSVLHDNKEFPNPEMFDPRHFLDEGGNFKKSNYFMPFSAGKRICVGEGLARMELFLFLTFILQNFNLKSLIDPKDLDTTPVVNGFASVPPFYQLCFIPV

Human CYP2C9, sequence (P11712 whole entry): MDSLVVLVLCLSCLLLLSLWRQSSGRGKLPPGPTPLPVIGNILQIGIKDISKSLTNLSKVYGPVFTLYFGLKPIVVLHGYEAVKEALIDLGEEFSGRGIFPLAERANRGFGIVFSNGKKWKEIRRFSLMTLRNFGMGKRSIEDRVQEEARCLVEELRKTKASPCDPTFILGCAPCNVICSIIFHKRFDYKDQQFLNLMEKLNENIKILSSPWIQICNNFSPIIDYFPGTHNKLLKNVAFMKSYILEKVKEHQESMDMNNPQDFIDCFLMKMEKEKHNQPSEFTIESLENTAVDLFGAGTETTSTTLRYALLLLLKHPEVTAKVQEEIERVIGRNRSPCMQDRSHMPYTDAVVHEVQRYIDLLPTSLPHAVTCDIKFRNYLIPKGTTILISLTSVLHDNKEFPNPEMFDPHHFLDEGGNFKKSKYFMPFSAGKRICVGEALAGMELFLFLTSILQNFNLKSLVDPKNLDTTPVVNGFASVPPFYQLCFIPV

For `COc1nc(C)nc(NC(=O)NS(=O)(=O)c2ccccc2Cl)n1` [chlorosulfuron], the metabolic reaction confirmed (Human CYP2C9) was “ring hydroxylation”, the “growth of the transformants” value (tobacco transformants; 200 nM chlorosulfuron) was “grew” and the Tolerance to chlorosulfuron (tobacco transformants; transformant N8, 20 nM) was 4. It also gave a Tolerance to chlorosulfuron (tobacco transformants; transformant N8, 50 nM) of 4, a Tolerance to chlorosulfuron (tobacco transformants; transformant N8, 100 nM) of 2.5 and a Tolerance to chlorosulfuron (tobacco transformants; transformant N8, 200 nM) of 2. The Tolerance to chlorosulfuron (tobacco transformants; transformant N60, 20 nM) was 4, the Tolerance to chlorosulfuron (tobacco transformants; transformant N60, 50 nM) was 4 and the Tolerance to chlorosulfuron (tobacco transformants; transformant N60, 100 nM) was 3. The Tolerance to chlorosulfuron (tobacco transformants; transformant N60, 200 nM) was 3, the Tolerance to chlorosulfuron (tobacco transformants; transformant N61, 20 nM) was 4 and the Tolerance to chlorosulfuron (tobacco transformants; transformant N61, 50 nM) was 4. For the same molecule, the Tolerance to chlorosulfuron (tobacco transformants; transformant N61, 100 nM) was 2, the Tolerance to chlorosulfuron (tobacco transformants; transformant N61, 200 nM) was 2 and the Tolerance to chlorosulfuron (tobacco transformants; transformant N69, 20 nM) was 4. It also gave a Tolerance to chlorosulfuron (tobacco transformants; transformant N69, 50 nM) of 4, a Tolerance to chlorosulfuron (tobacco transformants; transformant N69, 100 nM) of 2 and a Tolerance to chlorosulfuron (tobacco transformants; transformant N69, 200 nM) of 2. For the same molecule, the “growth of the non-transformed plants” value ([1]; 50 nM chlorosulfuron) was “completely inhibited”, the Tolerance to chlorosulfuron ([1]; Non-transformed, 20 nM) was 2 and the Tolerance to chlorosulfuron ([1]; Non-transformed, 50 nM) was 1.5. For the same molecule, the Tolerance to chlorosulfuron ([1]; Non-transformed, 100 nM) was 1, the Tolerance to chlorosulfuron ([1]; Non-transformed, 200 nM) was 0.5 and the Tolerance to chlorosulfuron ([1]; Only vector introduced, 20 nM) was 2. The Tolerance to chlorosulfuron ([1]; Only vector introduced, 50 nM) was 1.5, the Tolerance to chlorosulfuron ([1]; Only vector introduced, 100 nM) was 1 and the Tolerance to chlorosulfuron ([1]; Only vector introduced, 200 nM) was 0.5. For the same molecule, the “water-soluble substances which remained at the starting point of the development, in the transformants” value (tobacco R0 plants) was “increased”, the Germination of seeds ([2]; chlorosulfuron 250 nM) was “inhibited” and the “The number of tolerant lines” value ([3]; 2C9, 250 nM · 2 ml, 44 sample lines) was 15. The “elongation of shoots and roots of segregated individuals” value (“elongation” below) ([3]; chlorosulfuron 250 nM) was “normally elongated”.
For `CCc1cccc(C)c1N(C(=O)CCl)C(C)COC` (stereo not shown) [metolachlor], the metabolic reaction confirmed (Human CYP2B6) was “O-deethylation, O-demethylation”, the “The number of tolerant lines” value ([4]; 2C19, 4 μM · 2 ml, 68 sample lines) was 13 and the “elongation” value ([4]; metolachlor 4 μM) was “normally elongated”. The Resistance to herbicide (non-transformed MayQueen; Metolachlor 10 μmol/pot) was 2, the Resistance to herbicide (non-transformed MayQueen; Metolachlor 15 μmol/pot) was 2 and the Resistance to herbicide (non-transformed MayQueen; Metolachlor 20 μmol/pot) was 1.5. The “resistance of the transformant to the herbicide” value (S1974 (human CYP2C19)) was “strong resistance”, the Resistance to herbicide (potato transformants [5]; Metolachlor 10 μmol/pot) was 2.5 and the Resistance to herbicide (potato transformants [5]; Metolachlor 15 μmol/pot) was 3.5. The Resistance to herbicide (potato transformants [5]; Metolachlor 20 μmol/pot) was 2.5, the “resistance of the transformant compared with the non-transformed MayQueen” value (potato transformants [5]; herbicide dispersed 1 week after transfer to pots) was “higher resistance” and the “The number of tolerant lines” value ([6]; 2C18, 4 μM · 2 ml, 72 sample lines) was 3. The “elongation” value ([6]; metolachlor 4 μM) was “normally elongated”, the Germination of seeds ([2]; […] metolachlor, […] alachlor, 15 μM triflurarin) was “inhibited” and the Germination of seeds ([2]; metolachlor 4 μM) was “inhibited”. For the same molecule, the “resistance of the transformant to the herbicide” value (S1972 (human CYP2B6)) was “strong resistance”.
With `COc1cccc(N(C)C(=S)Oc2cccc(C(C)(C)C)c2)n1` [pyributicarb] the “amounts of pyributicarb in transgenic plant and in the medium compared with non-transformed MayQueen” value (potato transformants [7]) was “obviously reduced” and the metabolic reaction confirmed (Human CYP2C19) was “thioester cleavage”.
